Where “and” joins values, the source holds several entries; their conditions need not be identical. Equal values may be shown once. Read-outs that look alike come from different tables or passages of the source. Values belong to the molecule of their own block, whether it stands above or below them. Where no end group is shown, it is not given here. [ ]: non-standard residue; d: D form. Bip = N[C@@H](Cc1ccc(-c2ccccc2)cc1)C(=O)O; NMeF = CN[C@@H](Cc1ccccc1)C(=O)O; Ahp(2) = CCCCC[C@H](N)C(=O)O
Key:
Daudi cells [1] = experiment: Ternary binding assay: recruitment of PE-labeled human IgG1k to Daudi cells (flow cytometry, MFI); format: cell-based; settings: duplicate columns
Procedure: Various technologies can be utilized to assess and/or characterize recruitment of antibodies to target cells, e.g., cancer cells. One such assay is a ternary binding assay. An exemplary protocol is described herein. Compounds were diluted in DMSO (MP 191418) to 1000× the starting concentration used in the assay into a 96 well polypropylene plate (Corning 3357). They were then serially diluted in ½ log increments to generate 8-12 concentrations in DMSO (assay dependent). These DMSO stocks were then step diluted 1/100 into PBS (VWR Cat. #20012043). Step diluted compound range was then added into the polypropylene assay plate 1/10 the volume of the assay volume. Daudi (ATCC CCL-213), a non-adherent cell line, were counted and centrifuged and resuspended at a concentration of 100,000 cells per 90 ul in Flow buffer: 1% BSA (American Bio AB01088-00100); 0.5 mM EDTA (VWR 45001-122); PBS (VWR Cat. #20012043) with 11.1 ug/mL human IgG1k Phycoerythrin labeled (SouthernBiotech #0151K-09 PE). The cells were then added into the polypropylene plate with the step diluted compounds and incubated at 37° C. for 30 min. At the end of the incubation, the cells were centrifuged and washed 2× with How buffer containing 0.5% Tween 20 (BP337-500). Samples were analyzed on a BD FacsCelesta. Mean fluorescence was analyzed using Graphpad Prism and curves were fit using log(inhibitor) vs. response—Variable slope (four parameters).

[2] = tested on: Effector cells (ADCC reporter cells) with Daudi cells; experiment: ADCC reporter assay: Daudi cells, IVIG and ADCC reporter effector cells (luciferase, RLU); format: cell-based; settings: IVIG; for Luminescence, ADCC reporter assay: 18 h, duplicate columns
Procedure: Daudi (ATCC CCL-213) cells were resuspended in Opti-MEM (Thermo Fisher Scientific #31985070), counted (Life Technologies Countless II cell counter) and plated (5,000 cells in 25 uL/well; Corning plates: 3917). Compounds w diluted in DMSO (MP 191418) to 1000× the starting concentration used in the assay into a 96 well polypropylene plate (Corning 3357). They were then serially diluted in ½ log increments to generate 8 concentrations in DMSO (assay dependent). These DMSO stocks were then step diluted 1/250 into Opti-MEM. Step diluted compound range was then added into the polypropylene assay plate 25 uL/well. The human antibody solution (Grifols IVIG Fleogogamma #61953-0005-2) was diluted to 40 ug/mL and added 25 uL/well. Effector cells (ADCC reporter cells—Promega kit: G7018) were added 37,500 in 25 uL/well. The assay was then incubated 18 h at 37° C. Following the induction period, the plate was equilibrated to 25° C. followed the addition of the luciferase substrate (75 uL/well, 1 vial in 10 mL of Bio-Glo assay buffer, Promega kit: G7018). The luminescence was measured (Biotek Synergy H1 microplate reader).

Daudi cells [3] = experiment: KILR ADCC killing assay: KILR-transfected Daudi cells with purified NK cells (% dead cells); format: cell-based; settings: KILR Daudi cells with purified NK cells, duplicate columns
From the text: In some embodiments, CD38-ABT ARMs bind to target cells and antibodies, e.g., human antibodies. In some embodiments, such ternary structures present antibodies to effector cells such as NK cell and bind to, e.g., CD16a receptors. […] Daudi cells were transfected with KILR reporter construct (DiscoverX #97-0002). An attenuated lentivirus was designed to deliver a Moloney Murine Leukemia Virus (MMLV) engineered to drive expression of a housekeeping gene tagged with Enhanced ProLabel (ePL) a beta-Galactosidase (beta-gal) reporter fragment. This construct was designed to remain inside cells. Death leads to the release of the KILR reporter protein into the medium. Detection reagent (DiscoverX #97-0001L) contained the complementing beta-gal reporter fragment enzyme acceptor (EA). The two components combined to generate a chemiluminescent signal.

CD38 [4] = biological target: T1, CD38 (human, UniProt P28907 43-300, limits assumed); experiment: ELISA; larger values represent binding
T1 construct: also called cluster of differentiation 38; cyclic ADP ribose hydrolase

CD38 [5] = biological target: T1, CD38; experiment: ELISA; larger values represent binding; remark: listed apart in the source

Molecule: CCCCC[C@@H]1NC(=O)[C@H](CCCNC(=N)N)NC(=O)[C@H](C)NC(=O)CSC[C@@H](C(=O)NCCOCCOCCC(=O)NCCOCCOCCC(=O)N[C@@H](CC(=O)O)C(=O)N[C@H]2CSSC[C@@H](C(=O)N[C@H](C(=O)O)[C@@H](C)O)NC(=O)[C@H](Cc3c[nH]c4ccccc34)NC(=O)[C@H](C(C)C)NC(=O)[C@H](CC(C)C)NC(=O)[C@H](CCC(=O)O)NC(=O)CNC(=O)[C@H](CC(C)C)NC(=O)[C@H](Cc3c[nH]cn3)NC(=O)[C@H](Cc3c[nH]c4ccccc34)NC(=O)[C@H](C)NC2=O)NC(=O)[C@H](CC(=O)O)NC(=O)[C@H](CCCCC)NC(=O)[C@H](Cc2ccc(-c3ccccc3)cc2)NC(=O)[C@H](CC(C)C)NC(=O)[C@H](C(C)C)NC(=O)CNC(=O)[C@H](CC(=O)O)NC(=O)[C@H](Cc2c[nH]cn2)NC(=O)[C@H](Cc2ccc(O)cc2)NC1=O [I-34]
MFI, recruitment of PE-labeled human IgG1k to Daudi cells (Daudi cells [1]; compound 3 nM): 2094 and 1853
MFI, recruitment of PE-labeled human IgG1k to Daudi cells (Daudi cells [1]; compound 10 nM): 11368 and 6266
MFI, recruitment of PE-labeled human IgG1k to Daudi cells (Daudi cells [1]; compound 30 nM): 15113 and 15626
MFI, recruitment of PE-labeled human IgG1k to Daudi cells (Daudi cells [1]; compound 100 nM): 30043 and 19748
MFI, recruitment of PE-labeled human IgG1k to Daudi cells (Daudi cells [1]; compound 300 nM): 24939 and 24944
MFI, recruitment of PE-labeled human IgG1k to Daudi cells (Daudi cells [1]; compound 1000 nM): 27313 and 25699
MFI, recruitment of PE-labeled human IgG1k to Daudi cells (Daudi cells [1]; compound 3000 nM): 19464 and 23695
EC50 ([2]; ADCC reporter assay): 6.7 nM
Luminescence, ADCC reporter assay ([2]; compound 1 nM): 4355 RLU and 4667 RLU
Luminescence, ADCC reporter assay ([2]; compound 3 nM): 5459 RLU and 5627 RLU
Luminescence, ADCC reporter assay ([2]; compound 10 nM): 13353 RLU and 13815 RLU
Luminescence, ADCC reporter assay ([2]; compound 30 nM): 16833 RLU and 17160 RLU
Luminescence, ADCC reporter assay ([2]; compound 100 nM): 19999 RLU and 21759 RLU
Luminescence, ADCC reporter assay ([2]; compound 300 nM): 19948 RLU and 20759 RLU
Luminescence, ADCC reporter assay ([2]; compound 1000 nM): 12953 RLU and 13376 RLU
Luminescence, ADCC reporter assay ([2]; compound 3000 nM): 8601 RLU and 9733 RLU
% dead cells, KILR ADCC killing assay (Daudi cells [3]; compound 1 nM): 13.9% and 15.8%
% dead cells, KILR ADCC killing assay (Daudi cells [3]; compound 3 nM): 13.6% and 13.4%
% dead cells, KILR ADCC killing assay (Daudi cells [3]; compound 10 nM): 14.9% and 14.5%
% dead cells, KILR ADCC killing assay (Daudi cells [3]; compound 30 nM): 17.8% and 16.4%
% dead cells, KILR ADCC killing assay (Daudi cells [3]; compound 100 nM): 19.7% and 16.9%
% dead cells, KILR ADCC killing assay (Daudi cells [3]; compound 300 nM): 18.9% and 18.8%
% dead cells, KILR ADCC killing assay (Daudi cells [3]; compound 1000 nM): 15.3% and 15.9%
% dead cells, KILR ADCC killing assay (Daudi cells [3]; compound 3000 nM): 14.2% and 13.5%

Binding Assay (ELISA signal) (CD38 [4]): 1.79
B1: A R Ahp Y H D G V L Bph Ahp A C (peptide)
peptide: AR[Ahp(2)]YHDGVL[Bip][Ahp(2)]AC
modifications: not fully specified (N-terminus, bridges); printed as A R Ahp Y H D G V L Bph Ahp A C
notes: Alanine variant at position 12

Binding Assay (ELISA signal) (CD38 [5]): 0.1
B2: A L H A V L P Bph V W V C (peptide)
peptide: ALHAVLP[Bip]VWVC
modifications: not fully specified (N-terminus, bridges); printed as A L H A V L P Bph V W V C
notes: Alanine variant at position 4

Binding Assay (ELISA signal) (CD38 [4]): 0.3
B3: A R Ahp Y H D G A L Bph Ahp D C (peptide)
peptide: AR[Ahp(2)]YHDGAL[Bip][Ahp(2)]DC
modifications: not fully specified (N-terminus, bridges); printed as A R Ahp Y H D G A L Bph Ahp D C
notes: Alanine variant at position 8

Binding Assay (ELISA signal) (CD38 [5]): 0.84
B4: A A H MeF V L P Bph V W V C (peptide)
peptide: AAH[NMeF]VLP[Bip]VWVC
modifications: not fully specified (N-terminus, bridges); printed as A A H MeF V L P Bph V W V C

Binding Assay (ELISA signal) (CD38 [4]): 0.93
B5: A R Ahp Y H A G V L Bph Ahp D C (peptide)
peptide: AR[Ahp(2)]YHAGVL[Bip][Ahp(2)]DC
modifications: not fully specified (N-terminus, bridges); printed as A R Ahp Y H A G V L Bph Ahp D C
notes: Alanine variant at position 6

Binding Assay (ELISA signal) (CD38 [4]): 0.09
B6: A R Ahp Y H D G V L A Ahp D C (peptide)
peptide: AR[Ahp(2)]YHDGVLA[Ahp(2)]DC
modifications: not fully specified (N-terminus, bridges); printed as A R Ahp Y H D G V L A Ahp D C
notes: Alanine variant at position 10

Binding Assay (ELISA signal) (CD38 [5]): 0.47
B7: A L H MeF A L P Bph V W V C (peptide)
peptide: ALH[NMeF]ALP[Bip]VWVC
modifications: not fully specified (N-terminus, bridges); printed as A L H MeF A L P Bph V W V C
notes: Alanine variant at position 5

Binding Assay (ELISA signal) (CD38 [4]): 0.08
B8: A R Ahp Y H D G V A Bph Ahp D C (peptide)
peptide: AR[Ahp(2)]YHDGVA[Bip][Ahp(2)]DC
modifications: not fully specified (N-terminus, bridges); printed as A R Ahp Y H D G V A Bph Ahp D C
notes: Alanine variant at position 9

Binding Assay (ELISA signal) (CD38 [4]): 0.11
B9: A R Ahp A H D G V L Bph Ahp D C (peptide)
peptide: AR[Ahp(2)]AHDGVL[Bip][Ahp(2)]DC
modifications: not fully specified (N-terminus, bridges); printed as A R Ahp A H D G V L Bph Ahp D C
notes: Alanine variant at position 4

Binding Assay (ELISA signal) (CD38 [4]): 0.28
B10: A R Ahp Y A D G V L Bph Ahp D C (peptide)
peptide: AR[Ahp(2)]YADGVL[Bip][Ahp(2)]DC
modifications: not fully specified (N-terminus, bridges); printed as A R Ahp Y A D G V L Bph Ahp D C
notes: Alanine variant at position 5

Binding Assay (ELISA signal) (CD38 [4]): 0.2
B11: A R Ahp Y H D G V L Bph A D C (peptide)
peptide: AR[Ahp(2)]YHDGVL[Bip]ADC
modifications: not fully specified (N-terminus, bridges); printed as A R Ahp Y H D G V L Bph A D C
notes: Alanine variant at position 11

Binding Assay (ELISA signal) (CD38 [4]): 0.6
B12: A A Ahp Y H D G V L Bph Ahp D C (peptide)
peptide: AA[Ahp(2)]YHDGVL[Bip][Ahp(2)]DC
modifications: not fully specified (N-terminus, bridges); printed as A A Ahp Y H D G V L Bph Ahp D C

Binding Assay (ELISA signal) (CD38 [4]): 0.11
B13: A R A Y H D G V L Bph Ahp D C (peptide)
peptide: ARAYHDGVL[Bip][Ahp(2)]DC
modifications: not fully specified (N-terminus, bridges); printed as A R A Y H D G V L Bph Ahp D C
notes: Alanine variant at position 3

Binding Assay (ELISA signal) (CD38 [4]): 1.49
B14: A R Ahp Y H D A V L Bph Ahp D C (peptide)
peptide: AR[Ahp(2)]YHDAVL[Bip][Ahp(2)]DC
modifications: not fully specified (N-terminus, bridges); printed as A R Ahp Y H D A V L Bph Ahp D C
notes: Alanine variant at position 7

Binding Assay (ELISA signal) (CD38 [5]): 0.09
B15: A L H MeF V A P Bph V W V C (peptide)
peptide: ALH[NMeF]VAP[Bip]VWVC
modifications: not fully specified (N-terminus, bridges); printed as A L H MeF V A P Bph V W V C
notes: Alanine variant at position 6

Binding Assay (ELISA signal) (CD38 [5]): 0.37
B16: A L A MeF V L P Bph V W V C (peptide)
peptide: ALA[NMeF]VLP[Bip]VWVC
modifications: not fully specified (N-terminus, bridges); printed as A L A MeF V L P Bph V W V C
notes: Alanine variant at position 3

Source: US20230028880A1, “CD38-BINDING AGENTS AND USES THEREOF” (Biohaven Therapeutics Ltd., priority 2019, published 2023)
